Data as given in patent US10815204B2, “Process for the preparation of diphenylpyrazine derivatives” (HONOUR (R&D), priority 2016, dated 2020).

How the values were obtained:
Format in all cases: physicochemical
[1] = Stability of Selexipag amorphous form on storage, solid form by PXRD
Description: X-ray powder diffraction spectrum was measured on a bruker axs D8 advance X-ray powder diffractometer having a copper-a radiation. Adequate sample was gently flattered on a sample holder and scanned from 2 to 50 degrees two-theta, at 0.02 increment and scan speed of 0.2 Sec/Step. The sample was simply placed on the sample holder. The sample was rotated at 30 rpm at a voltage 40 KV and current 35 mA. In another aspect of the present invention, Selexipag amorphous form is stable at 5±3° C. and 25±2° C./RH (Relative humidity) 60±5%, 40±2° C./RH (Relative humidity) 75±5% and has the following stability data: […]

[2] = Storage stability of Selexipag amorphous form (statement); settings: at 5±3° C. and 25±2° C./RH 60±5%, 40±2° C./RH 75±5%
Description: (§1) In another aspect of the present invention, Selexipag amorphous form is stable at 5±3° C. and 25±2° C./RH (Relative humidity) 60±5%, 40±2° C./RH (Relative humidity) 75±5% and has the following stability data: […]

[3] = Stability of Selexipag amorphous form on storage, Chromatographic Purity (by HPLC)
Description: as §1

[4] = 25 ± 2° C./RH 60 ± 5%, 1st month
[5] = 25 ± 2° C./RH 60 ± 5%, 2nd Month
[6] = 25 ± 2° C./RH 60 ± 5%, 3rd Month
[7] = 25 ± 2° C./RH 60 ± 5%, 4th Month
[8] = 25 ± 2° C./RH 60 ± 5%, 5th Month
[9] = 40 ± 2° C./RH 75 ± 5%, 1st month
[10] = 40 ± 2° C./RH 75 ± 5%, 2nd Month
[11] = 40 ± 2° C./RH 75 ± 5%, 3rd Month

## CC(C)N(CCCCOCC(=O)NS(C)(=O)=O)c1cnc(-c2ccccc2)c(-c2ccccc2)n1 [Selexipag amorphous form, 2-{4-[(5,6-diphenylpyrazin-2-yl)(isopropyl)amino]butoxy}-N-(methylsulfonyl)acetamide]
[1]; 5 ± 3° C., 1st month
  PXRD: Amorphous
[1]; 5 ± 3° C., 2nd Month
  PXRD: Amorphous
[1]; 5 ± 3° C., 3rd Month
  PXRD: Amorphous
[1]; 5 ± 3° C., 4th Month
  PXRD: Amorphous
[1]; 5 ± 3° C., 5th Month
  PXRD: Amorphous
[1]; 5 ± 3° C., 6th Month
  PXRD: Amorphous
[1]; 5 ± 3° C., Initial
  PXRD: Amorphous
[1]; [4]
  PXRD: Amorphous
[1]; [5]
  PXRD: Amorphous
[1]; [6]
  PXRD: Amorphous
[1]; [7]
  PXRD: Amorphous
[1]; [8]
  PXRD: Amorphous
[1]; 25 ± 2° C./RH 60 ± 5%, Initial
  PXRD: Amorphous
[1]; [9]
  PXRD: Amorphous
[1]; [10]
  PXRD: Amorphous
[1]; [11]
  PXRD: Amorphous
[1]; 40 ± 2° C./RH 75 ± 5%, Initial
  PXRD: Amorphous
[2]
  stability on storage: stable
[3]; 5 ± 3° C., 1st month
  Chromatographic Purity (by HPLC): 99.63
[3]; 5 ± 3° C., 2nd Month
  Chromatographic Purity (by HPLC): 99.66
[3]; 5 ± 3° C., 3rd Month
  Chromatographic Purity (by HPLC): 99.76
[3]; 5 ± 3° C., 4th Month
  Chromatographic Purity (by HPLC): 99.76
[3]; 5 ± 3° C., 5th Month
  Chromatographic Purity (by HPLC): 99.70
[3]; 5 ± 3° C., 6th Month
  Chromatographic Purity (by HPLC): 99.76
[3]; 5 ± 3° C., Initial
  Chromatographic Purity (by HPLC): 99.63
[3]; [4]
  Chromatographic Purity (by HPLC): 99.63
[3]; [5]
  Chromatographic Purity (by HPLC): 99.59
[3]; [6]
  Chromatographic Purity (by HPLC): 99.72
[3]; [7]
  Chromatographic Purity (by HPLC): 99.78
[3]; [8]
  Chromatographic Purity (by HPLC): 99.69
[3]; 25 ± 2° C./RH 60 ± 5%, 6th Month
  Chromatographic Purity (by HPLC): 99.68
[3]; 25 ± 2° C./RH 60 ± 5%, Initial
  Chromatographic Purity (by HPLC): 99.63
[3]; [9]
  Chromatographic Purity (by HPLC): 99.62
[3]; [10]
  Chromatographic Purity (by HPLC): 99.58
[3]; [11]
  Chromatographic Purity (by HPLC): 99.66
[3]; 40 ± 2° C./RH 75 ± 5%, 4th Month
  Chromatographic Purity (by HPLC): 99.69
[3]; 40 ± 2° C./RH 75 ± 5%, 5th Month
  Chromatographic Purity (by HPLC): 99.66
[3]; 40 ± 2° C./RH 75 ± 5%, 6th Month
  Chromatographic Purity (by HPLC): 99.65
[3]; 40 ± 2° C./RH 75 ± 5%, Initial
  Chromatographic Purity (by HPLC): 99.63
